Here are results for four compounds from patent US20170319563A1, “STEROID-FREE DISEASE MANAGEMENT” (Asana BioSciences, LLC, priority 2014, published 2017).

Where two headings read alike, the source gives them in different places.

The nature of data set [1]: Food effect and bioavailability in rats. It is filed as in vivo, rat. The source says:
Accordingly, the dosage forms, regimens and methods of administration described herein may be accomplished on humans in the fed or fasted state and with food or without. Thus, the methods described herein could include administration of a therapeutically effective amount of ASN001, as a substantially pure enantiomer, as a mixture or as a racemic mixture, which is “food indifferent” which means with or without food to a patient in a fed or fasted state. Examples include, without limitation, with food, to a patient who has consumed food in the last two hours, without food, and/or to a patient who has not eaten in the last two hours.

The subject of data set [2] is testosterone synthesis. Briefly: Cell-based functional assay: testosterone synthesis inhibition in H295R cells. Particulars: for EC50: Homo sapiens, NCI-H295R, H295R cells; for IC50 / testosterone/cortisol synthesis inhibition ratio: human adrenal NCI-H295R cells. Details: species or system human. Here is the method:
Cell-Based Functional Assay: Testosterone Synthesis Inhibition
To understand how the inhibition of CYP17 lyase impacts testosterone synthesis, testosterone levels were measured in H295R adrenocortical carcinoma cells. This assay was conducted as described previously as Example 86 in WO 2013/049559 (published in the US as United States Patent Application Publication No. US 2013/0085148).

Data set [3] has as its system cortisol synthesis. Put plainly: Cell-based functional assay: cortisol synthesis inhibition in H295R cells. Details: species or system human. Here is the method:
Cell-Based Functional Assay: Cortisol Synthesis Inhibition
The H295R cell based assay was used to examine effects on cortisol synthesis. The DetectX® Cortisol Immunoassay kit (Arbor Assays, Cat. No. K003-H1) measures Cortisol present in extracted dried fecal samples, serum, plasma and tissue culture media samples.
(§1) Standard Preparation • 1. Label seven test tubes as #1 through #7. • 2. Pipet 450 μL of Assay Buffer into tube #1 and 250 μL into tubes #2 to #7. • 3. The Cortisol stock solution contains an organic solvent. Pre-rinse the pipet tip several times to ensure accurate delivery. • 4. Carefully add 50 μL of the Cortisol stock solution to tube #1 and vortex completely. • 5. Take 250 μL of the Cortisol solution in tube #1 and add it to tube #2 and vortex completely. • 6. Repeat the serial dilutions for tubes #3 through #7. • 7. The concentration of Cortisol in tubes 1 through 7 will be 5,000, 2,500, 1,250, 625, 312.5, 156.25 and 78.125 pg/mL.
(§2) Assay Protocol • 1. Subculture H295R (Human Adreno Cortical Carcinoma cell line ATCC# CRL-2128) cells and seed 60,000 cells per well in a poly-d lysine plate and leave it overnight at 37° C. • 2. Add 50 μl of serially diluted compounds from a 5×plate. • 3. Incubate overnight at 37° C. (˜16 hours). • 4. Collect media/cell culture supernatant and dilute appropriately for Cortisol estimation (1:10 diluted with assay buffer). • 5. Pipet 50 μL of samples or standards into wells in the plate. • 6. Pipet 75 μL of Assay Buffer into the non-specific binding (NSB) wells. • 7. Pipet 50 μL of Assay Buffer into wells to act as maximum binding wells (B0 or 0 pg/mL). • 8. Add 25 μL of the DetectX® Cortisol Conjugate to each well using a repeater pipet. • 9. Add 25 μL of the DetectX® Cortisol Antibody to each well, except the NSB wells, using a repeater pipet. • 10. Gently tap the sides of the plate to ensure adequate mixing of the reagents. Cover the plate with the plate sealer and shake at room temperature for 1 hour. If the plate is not shaken signals bound will be approximately 45% lower. • 11. Aspirate the plate and wash each well 4 times with 300 μL wash buffer. Tap the plate dry on clean absorbent towels. • 12. Add 100 μL of the TMB Substrate to each well, using a repeater pipet. • 13. Incubate the plate at room temperature for 30 minutes without shaking. • 14. Add 50 μL of the Stop Solution to each well, using a repeater or a multichannel pipet. • 15. Read the optical density generated from each well in a plate reader capable of reading at 450 nm. • 16. Use the plate reader's built-in 4PLC software capabilities to calculate Cortisol concentration for each sample.

Data set [4] has as its target T1, CYP17 C17,20-lyase (Homo sapiens, UniProt P05093).
T1 construct: These cells have intact testosterone synthesis pathway; host or cells: NCI-H295R human adrenocortical carcinoma cells
T1 sequence (P05093 1-508): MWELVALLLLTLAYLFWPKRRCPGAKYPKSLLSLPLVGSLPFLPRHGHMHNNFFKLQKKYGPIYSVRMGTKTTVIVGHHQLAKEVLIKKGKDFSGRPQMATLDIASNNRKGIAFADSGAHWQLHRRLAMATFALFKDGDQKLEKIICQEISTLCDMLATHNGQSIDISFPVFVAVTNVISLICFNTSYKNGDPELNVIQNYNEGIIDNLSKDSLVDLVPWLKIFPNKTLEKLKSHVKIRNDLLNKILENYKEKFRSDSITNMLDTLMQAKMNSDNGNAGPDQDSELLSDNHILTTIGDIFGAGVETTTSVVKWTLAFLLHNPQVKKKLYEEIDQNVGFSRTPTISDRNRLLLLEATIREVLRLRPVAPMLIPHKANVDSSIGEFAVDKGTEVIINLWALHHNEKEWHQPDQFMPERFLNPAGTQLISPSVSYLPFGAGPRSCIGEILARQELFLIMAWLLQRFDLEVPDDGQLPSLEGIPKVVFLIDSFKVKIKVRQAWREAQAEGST
Briefly: Cell-based CYP17 C17,20-lyase assay in H295R cells. Here is the method:
Cell-Based CYP17 C17,20-Lyase Assay
To test the inhibitory effect of compounds on CYP17 C17,20-lyase activity in cells, human adrenocortical carcinoma H295R cells (ATCC) were used. These cells have intact testosterone synthesis pathway and are ideal to study the effect of compounds on various enzymes involved in this pathway. The cell-based CYP17 C17,20-Lyase assay was conducted as described previously as Example 85 in WO 2013/049559 (published in the US as United States Patent Application Publication No. US 2013/0085148).

The test system of data set [5] is corticosterone synthesis. Put plainly: Cell-based functional assay: corticosterone synthesis inhibition in H295R cells. Details: species or system human. Here is the method:
Cell-Based Functional Assay: Corticosterone Synthesis Inhibition
The H295R cell based assay was used to examine effects on corticosterone synthesis. The DetectX® Corticosterone Immunoassay kit (Arbor Assays, Cat. No. K014-H1) measures Corticosterone present in extracted dried fecal samples, serum, plasma and tissue culture media samples.
as §1, with “corticosterone” for “Cortisol”
as §2, with “for Corticosterone” for “for Cortisol”, “(1:10 Diluted” for “(1:10 diluted”, “wells (Bo” for “wells (B0”, “DetectX® Corticosterone” for “DetectX® Cortisol”, “calculate Corticosterone” for “calculate Cortisol”

The test system of data set [6] is male SD rats. Particulars: prior test, 30 mg/kg QD PO x 14 days; Example 88 of WO 2013/049559; cited from earlier work.
The target in data set [7] is T1, CYP17 C17,20-lyase. Briefly: CYP17 lyase assay in human testicular microsomes. It is filed as biochemical. The source says:
ASN001 has one chiral center. The individual enantiomers of ASN001 are both potent and selective inhibitors of CYP17. […] Similar relative potency results for the racemate and enantiomers have also been obtained experimentally in rat testicular microsomes and human H295R adrenocortical carcinoma cells. In summary ASN001 and its individual enantiomers are all potent inhibitors of CYP17 activity and testosterone synthesis in biochemical and cellular functional assays.
(§3) General procedures for the in vitro and in vivo studies discussed above have been described previously in WO 2013/049559 (published in the US as United States Patent Application Publication No. US 2013/0085148; see e.g. Examples 84-88). The inhibitory effect of compounds on human CYP17 lyase activity in vitro in human testicular microsomes (CelsisIVT, US) was determined in a similar manner to the CYP17 lyase assay in rat testicular microsomes described previously as Example 84 in WO 2013/049559 (published in the US as United States Patent Application Publication No. US 2013/0085148), except that human testicular microsomes were used instead of rat testicular microsomes.

The test system of data set [8] is male SD rats. Briefly: Prostate and seminal vesicle weights after 14 days repeat oral administration. In kind it is in vivo. Here is the method:
The effect of ASN001 and its individual enantiomers on prostate and seminal vesicle weights was evaluated after 14 days repeat oral administration in male SD rats. ASN001 caused a dose-dependent reduction of the prostate and seminal vesicle weights.
(In a prior test using ASN001 at 30 mg/kg once a day (QD) PO×14 days, not made in comparison to either enantiomer, but using the same general protocol, the reduction in prostate and seminal vesicle weights was “about 50%” and “about 60%” respectively. See Example 88 of WO 2013/049559.)
as §3

Where [9] appears, read: Homo sapiens, NCI-H295R, H295R cells, read-out: cortisol synthesis inhibition IC50.
[10] abbreviates: human adrenal NCI-H295R cells, read-out: cortisol synthesis IC50.
Where [11] appears, read: H295R cells, average of multiple runs, read-out: CYP17 C17,20-lyase average IC50.
The mark [12] stands for this setting: human adrenal NCI-H295R cells, read-out: 17,20-Lyase IC50.
[13] abbreviates: Homo sapiens, NCI-H295R, H295R cells, read-out: corticosterone synthesis inhibition IC50.
Setting [14] is: human adrenal NCI-H295R cells, read-out: corticosterone synthesis IC50.

As a reminder, the EC50 is the concentration at which the effect is half-maximal. Lower therefore signals greater potency. Broadly, the IC50 is the midpoint of a concentration-inhibition curve. For `CC(O)(c1ccncc1)c1cnc(-c2ccc(F)cc2)s1` (racemic) [ASN001, 1-(2-(4-fluorophenyl)thiazol-5-yl)-1-(pyridin-4-yl)ethanol], in data set [1] (rat and other non-clinical species), the bioavailability entry was “quite high”. In data set [1] (rats), the food effect result was “does not exhibit a food effect”. Also, a half-maximal effect in data set [2] (EC50) was put at 0.054 µM. The IC50 in data set [2] was determined as 0.054 µM; in data set [3] (setting [9]) it was 0.346 µM; in data set [3] (setting [10]) it was 0.35 µM; in data set [4] (setting [11]), 0.05 µM; in data set [4] (setting [12]) it was 0.05 µM; in data set [5] (setting [13]) it was 2.8 µM. For the same compound, the values for the IC50 in data set [5] (setting [14]) and in data set [7] were 2.8 µM and 0.015 µM, respectively. In addition, the “testosterone/cortisol synthesis inhibition ratio” value in data set [2] came out at 6.5. Besides, the “difference between C17,20-lyase inhibition and cortisol biosynthesis inhibition” value in data set [4] (adrenal NCI-H295R cells) is listed as ~7 fold. For the same compound, the “reduction in prostate weight” value in data set [6] is “about 50%”; in data set [8] (10 mg/kg BID PO x 14 days) it was 24%; in data set [8] (30 mg/kg QD PO x 14 days) it was 29%. The “reduction in seminal vesicle weight” value in data set [6] was “about 60%”; in data set [8] (10 mg/kg BID PO x 14 days), 48%; in data set [8] (30 mg/kg QD PO x 14 days), 43%.
In data set [2], `C[C@]12CC[C@H](O)CC1=CC[C@@H]1[C@@H]2CC[C@]2(C)C(c3cccnc3)=CC[C@@H]12` [Abiraterone, abiraterone, reference compound] registered an EC50 of 0.005 µM. In addition, the IC50 in data set [2] is 0.005 µM; in data set [3] (setting [9]) it was 0.00068 µM; in data set [3] (setting [10]), < 0.001 µM; in data set [4] (setting [11]) it was 0.0028 µM; in data set [4] (setting [12]) it was 0.003 µM; in data set [5] (setting [13]), 0.065 µM. The IC50 in data set [5] (setting [14]) was 0.065 µM. The “testosterone/cortisol synthesis inhibition ratio” value in data set [2] was <0.2.
Take `CC(O)(c1ccncc1)c1cnc(-c2ccc(F)cc2)s1` (single isomer, unassigned; (+)) [(+)ASN001]: the IC50 in data set [7] was 0.063 µM.
In data set [7], `CC(O)(c1ccncc1)c1cnc(-c2ccc(F)cc2)s1` (single isomer, unassigned; (-)) [(−)ASN001] had an IC50 of 0.008 µM. Also, in data set [8] (10 mg/kg BID PO x 14 days), the “reduction in prostate weight” value is recorded as 30% and the “reduction in seminal vesicle weight” value was found to be 31%. For the same compound, in data set [8] (15 mg/kg QD PO x 14 days), the “reduction in prostate weight” value is 17% and the “reduction in seminal vesicle weight” value came to 27%.
